The text below walks through data of US12466855B2, “Labeled oxytocin and method of manufacture and use” (TONIX PHARMA LIMITED, priority 2018, dated 2025).

The nature of series [1]: PET/MR distribution of ^13N-oxytocin following nasal administration in rats. The class given is in vivo, rat. The conditions noted are these: intranasal, approx. 100 μl (1-2 MBq) per nostril in 10% ethanol/90% saline, 60 min PET scan, FIG. 3. The procedure:
(§1) Anesthetised rats are scanned using a microPET scanner (nanoscan microPET/IT MRI, Mediso Ltd, Budapest, Hungary). Body temperature is maintained and circulation and respiration are monitored. First, a structural T2-weighted MRI scan is obtained for attenuation correction. Subsequently, the rat is injected through the tail vein with the ^13N-oxytocin radiotracer. A list-mode protocol is used with a 60-min acquisition time. The list-mode data of the emission scans are split into a dynamic sequence of frames. The data are reconstructed per time frame employing an iterative reconstruction. Appropriate correction factors are applied producing quantitative dynamic images (matrix size (x, y, z) 93, 93, 120. Voxel size 0.4 mm. 3D Tera-Tomo reconstruction with Monte Carlo based estimation, attenuation and scatter correction). A summed PET image of each 60 min scan is co-registered to an average Sprague-Dawley rat MRI brain atlas using PMOD software (version 3.7, PMOD Technologies Ltd, Zurich, Switzerland), a commercially available software package for biomedical image quantification, to acquire data in regions of interest. The results are expressed as dimensionless standardized uptake values (SUVs): [tissue activity concentration (MBq/g)×body weight (g)/injected dose (MBq)].
The distribution of ^13N-oxytocin following nasal administration in rats is tested. […]

Series [2] is described as follows: PET/MRI distribution of ^13N-oxytocin following IV administration in rats. It counts as in vivo. To be noted: female Sprague Dawley rat, 13.3 MBq in the tail vein (IV), 30 min dynamic PET, FIG. 2. The protocol:
as §1, with “A list-mode protocol is used with a 60-min acquisition time.” left out, “A summed PET image of each 60 min scan is co-registered to an average” left out
In one study, female Sprague Dawley rats were housed two per cage under a 12 h light/12 h dark cycle at an average temperature of 21° C. and humidity of 55%, with ad libitum access to food and water. […]

For series [3] the following is noted: human patients, migraine headache pain, after administration; cited from earlier work.

Each structure is given as a SMILES string.

Regarding `CC[C@H](C)[C@@H]1NC(=O)[C@H](Cc2ccc(O)cc2)NC(=O)[C@@H](N)CSSC[C@@H](C(=O)N2CCC[C@H]2C(=O)N[C@@H](CC(C)C)C(=O)NCC(N)=O)NC(=O)[C@H](CC(N)=O)NC(=O)[C@H](CCC(N)=O)NC1=O` [oxytocin, Cys-Tyr-Ile-Gln-Asn-Cys-Pro-Leu-Gly], the “brain uptake / CNS penetration (PET/MR overlay)” value in series [1] is given as “lack of CNS penetration”. Further, in series [2], the “brain uptake / CNS penetration (PET and MR scans)” value was “lack of CNS penetration”. For the same compound, in series [3], the “initial period before onset of significant analgesia” value was “up to 2 hours” and the “time to maximal analgesic effect” value is 4 h.
